The values that follow come from publication PMC6502639 (Nature protocols, 2018).

For data set [1], the system named is hiPSC-CMs.
The test system of data set [2] is hiPSC-CMs. Conditions: cited from earlier work; for hiPSC-CM cytotoxicity (in words): hiPSC-CMs.
For data set [3], the system named is patient cardiac function. Conditions: patients; abbreviations in table footnote; ref Table S1 in Sharma et al. 10; cited from earlier work.
In data set [4] the test system is hiPSC-CMs. Conditions: cited from earlier work.
Data set [5] concerns hiPSC-CMs. Conditions: cited from earlier work. The source holds these as a separate data set.
The test system of data set [6] is hiPSC-CMs. Conditions: cited from earlier work. The source holds these as a separate data set.
The mark [7] stands for this setting: 0 to 1, average of normalized CoB and LD50 corrected by Cmax, without EC or AE.
Where [8] appears, read: concentration at which 50% loss in hiPSC-CM viability is observed, 72 h.

Like-named read-outs stand apart in the source and are kept apart here.

For the compound `Cc1cn(-c2cc(NC(=O)c3ccc(C)c(Nc4nccc(-c5cccnc5)n4)c3)cc(C(F)(F)F)c2)cn1` [Nilotinib], the “Normalized CSI-Lite (CSINLITE)” value in data set [1] (human) was found to be 0.148. Further, the LD50 in data set [2] was 29.00 µM. For the same compound, the Clinically reported cardiotoxicity in data set [3] was “QT, LV, Vas^a”.

Take `CNC(=O)c1ccccc1Sc1ccc2c(/C=C/c3ccccn3)n[nH]c2c1` [Axitinib]: in data set [4], the “hiPSC-CM contractility alteration (in words)” value is “does not substantially alter”. Moreover, the “Normalized CSI-Lite (CSINLITE)” value in data set [1] (human) was 1.000. For the same compound, in data set [5], the “Normalized CSI (CSIN)” value was 1.000. In addition, the “hiPSC-CM cytotoxicity (in words)” value in data set [2] was “does not substantially alter”. Further, the Clinically reported cardiotoxicity in data set [3] is given as “HF (rare), Hy”.

On to `CNC(=O)c1cc(Oc2ccc(NC(=O)Nc3ccc(Cl)c(C(F)(F)F)c3)cc2)ccn1` [Sorafenib], for which, in data set [1] (human), the “Normalized CSI-Lite (CSINLITE)” value was found to be 0.003. The “Normalized CSI (CSIN)” value in data set [5] was 0.004. Further, in data set [2], the LD50 is 3.40 µM and the “hiPSC-CM cytotoxicity (in words)” value is recorded as “highly cytotoxic to hiPSC-CMs”. Further, the Clinically reported cardiotoxicity in data set [3] is “QT, LV, HF, MI, Hy”.

With `CC(C)(C)c1nc(-c2cccc(NS(=O)(=O)c3c(F)cccc3F)c2F)c(-c2ccnc(N)n2)s1` [Dabrafenib], the “Normalized CSI-Lite (CSINLITE)” value in data set [1] (setting [7]) stood at 0.561. In addition, the “Normalized CSI (CSIN)” value in data set [5] was 0.459. For the same compound, the LD50 in data set [2] (setting [8]) is 100.68 µM.

For `Cc1nc(Nc2ncc(C(=O)Nc3c(C)cccc3Cl)s2)cc(N2CCN(CCO)CC2)n1` [Dasatinib], the “Normalized CSI-Lite (CSINLITE)” value in data set [1] (human) is 0.599. Moreover, the “Normalized CSI (CSIN)” value in data set [5] is listed as 0.524. In data set [2] (setting [8]), the LD50 is 42.00 µM. For the same compound, in data set [3], the Clinically reported cardiotoxicity is “QT, PE, Hy”.

In the case of `COc1cc2ncnc(Nc3ccc(F)c(Cl)c3)c2cc1OCCCN1CCOCC1` [Gefitinib], the Clinically reported cardiotoxicity in data set [3] is reported as “None”.

For `C#Cc1cccc(Nc2ncnc3cc(OCCOC)c(OCCOC)cc23)c1` [Erlotinib], in data set [1] (human), the “Normalized CSI-Lite (CSINLITE)” value was 0.570. For the same compound, the “Normalized CSI (CSIN)” value in data set [5] is on record as 0.653. Also, in data set [2], the LD50 is 87.60 µM. In data set [3], the Clinically reported cardiotoxicity is given as “MI (rare)”.

Regarding `CN(C)C/C=C/C(=O)Nc1cc2c(Nc3ccc(F)c(Cl)c3)ncnc2cc1O[C@H]1CCOC1` [Afatinib], the “Normalized CSI-Lite (CSINLITE)” value in data set [1] (human) was found to be 0.515. For the same compound, the “Normalized CSI (CSIN)” value in data set [5] is 0.444. Besides, the LD50 in data set [2] is 12.30 µM. Further, the Clinically reported cardiotoxicity in data set [3] was “None”.

On to `CCCS(=O)(=O)Nc1ccc(F)c(C(=O)c2c[nH]c3ncc(-c4ccc(Cl)cc4)cc23)c1F` [Vemurafenib], for which, in data set [1] (setting [7]), the “Normalized CSI-Lite (CSINLITE)” value is on record as 0.002. The “Normalized CSI (CSIN)” value in data set [5] is reported as 0.003. The LD50 in data set [2] (setting [8]) was 32.10 µM.

Take `CCN(CC)CCNC(=O)c1c(C)[nH]c(/C=C2\C(=O)Nc3ccc(F)cc32)c1C` [Sunitinib]: the “Normalized CSI-Lite (CSINLITE)” value in data set [1] (human) came out at 0.292. In addition, the “Normalized CSI (CSIN)” value in data set [5] was 0.218. In addition, the LD50 in data set [2] was 12.70 µM. In data set [3], the Clinically reported cardiotoxicity was “HF, LV, MI, QT, Hy^b”.

As to `COc1cc2c(Nc3ccc(Br)cc3F)ncnc2cc1OCC1CCN(C)CC1` [Vandetanib], the “hiPSC-CM contractility alteration (in words)” value in data set [4] was “elicited arrhythmias and alterations in hiPSC-CM contractility”. Further, the “Normalized CSI-Lite (CSINLITE)” value in data set [1] (setting [7]) is 0.056. The “Normalized CSI (CSIN)” value in data set [5] is 0.041. For the same compound, the “Effect on hiPSC-CM action potential / electrophysiology (in words)” value in data set [6] is “caused changes in hiPSC-CM electrophysiology and action potential duration”. Moreover, in data set [2] (setting [8]), the LD50 is 20.60 µM. In data set [3], the Clinically reported cardiotoxicity is listed as “QT, TdP, SCD, HF, Hy^a”.

For the compound `CC(=O)Nc1cccc(-n2c(=O)n(C3CC3)c(=O)c3c(Nc4ccc(I)cc4F)n(C)c(=O)c(C)c32)c1` [Trametinib], in data set [1] (human), the “Normalized CSI-Lite (CSINLITE)” value was determined as 1.000. In addition, in data set [2] (setting [8]), the LD50 was 66.80 µM.

In the case of `C[C@@H](Oc1cc(-c2cnn(C3CCNCC3)c2)cnc1N)c1c(Cl)ccc(F)c1Cl` [Crizotinib], the “Normalized CSI-Lite (CSINLITE)” value in data set [1] (setting [7]) was 0.067. Further, the “Normalized CSI (CSIN)” value in data set [5] is on record as 0.063. In addition, the LD50 in data set [2] is 8.60 µM. Moreover, the Clinically reported cardiotoxicity in data set [3] is given as “QT, Brady”.

Take `CNC(=O)c1cc(Oc2ccc(NC(=O)Nc3ccc(Cl)c(C(F)(F)F)c3)c(F)c2)ccn1` [Regorafenib]: the “Normalized CSI-Lite (CSINLITE)” value in data set [1] (setting [7]) turned out to be 0.010. Further, in data set [5], the “Normalized CSI (CSIN)” value is on record as 0.010. In data set [2] (setting [8]), the LD50 is 7.10 µM. Besides, the Clinically reported cardiotoxicity in data set [3] is “MI, Hy^b”.

On to `Cc1ccc(C(=O)Nc2ccc(CN3CCN(C)CC3)c(C(F)(F)F)c2)cc1C#Cc1cnc2cccnn12` [Ponatinib], for which the “Normalized CSI-Lite (CSINLITE)” value in data set [1] (setting [7]) was determined as 0.225. Moreover, the LD50 in data set [2] (setting [8]) was 4.30 µM.

With `COc1cc(Nc2c(C#N)cnc3cc(OCCCN4CCN(C)CC4)c(OC)cc23)c(Cl)cc1Cl` [Bosutinib], the “Normalized CSI-Lite (CSINLITE)” value in data set [1] (setting [7]) came to 0.423. Further, the LD50 in data set [2] (setting [8]) is 12.39 µM.

As to `CS(=O)(=O)CCNCc1ccc(-c2ccc3ncnc(Nc4ccc(OCc5cccc(F)c5)c(Cl)c4)c3c2)o1` [Lapatinib], the “Normalized CSI-Lite (CSINLITE)” value in data set [1] (human) is reported as 0.190. In addition, the “Normalized CSI (CSIN)” value in data set [5] is 0.209. Also, in data set [2] (setting [8]), the LD50 was 100.76 µM. In addition, the Clinically reported cardiotoxicity in data set [3] is on record as “LV, QT^b”.

Turning to `COc1cccc2c1C(=O)c1c(O)c3c(c(O)c1C2=O)C[C@@](O)(C(=O)CO)C[C@@H]3O[C@H]1C[C@H](N)[C@H](O)[C@H](C)O1` [Doxorubicin], in data set [1] (human), the “Normalized CSI-Lite (CSINLITE)” value is recorded as 0.008. Moreover, the “Normalized CSI (CSIN)” value in data set [5] is recorded as 0.010. Besides, in data set [2] (setting [8]), the LD50 was 0.78 µM. For the same compound, the Clinically reported cardiotoxicity in data set [3] is on record as “HF, LV^a”.

With `Cc1ccc(Nc2nccc(N(C)c3ccc4c(C)n(C)nc4c3)n2)cc1S(N)(=O)=O` [Pazopanib], the “Normalized CSI-Lite (CSINLITE)” value in data set [1] (setting [7]) is reported as 1.000. The “Normalized CSI (CSIN)” value in data set [5] is reported as 0.671. The Clinically reported cardiotoxicity in data set [3] is “QT, LV (rare)^b”.

On to `C=CC(=O)N1CCC[C@@H](n2nc(-c3ccc(Oc4ccccc4)cc3)c3c(N)ncnc32)C1` [Ibrutinib], for which the “Normalized CSI-Lite (CSINLITE)” value in data set [1] (human) is given as 0.580. Further, the “Normalized CSI (CSIN)” value in data set [5] is recorded as 0.507.

For `COc1cc2nccc(Oc3ccc(NC(=O)C4(C(=O)Nc5ccc(F)cc5)CC4)cc3)c2cc1OC` [Cabozantinib], in data set [1] (human), the “Normalized CSI-Lite (CSINLITE)” value amounted to 1.000. For the same compound, the “Normalized CSI (CSIN)” value in data set [5] was 0.769. For the same compound, in data set [3], the Clinically reported cardiotoxicity is “None^b”.
